Source: patent publication US10030016B2 (Sunesis Pharmaceuticals, Inc., priority 2009, dated 2018)
Counter-ions that a name gives are not always drawn. Like-named read-outs stand apart in the source and are kept apart here.

Assays:
[1] = test system: phospho-akt (Thr308) in PC-3 cells; experiment: Inhibition of phospho-akt (Thr308) in PC-3 cells, MSD phospho-akt 308 ELISA kit; assay type: cell-based; settings: 2 hours, no serum, read-out: EC50
Summary of the method: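 PC-3 cells were seeded overnight in growth medium with 10% FBS, then exposed to compound serially diluted threefold in serum-free medium for 2 hours. Lysates were captured overnight at 4 degrees on MSD plates and phospho-Akt Thr308 was detected electrochemiluminescently, against DMSO high and 5 μM wortmannin low controls.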

[2] = biological target: PDK1 (Homo sapiens (Human), UniProt O15530); experiment: PDK1 kinase assay (coupled PDK1/AKT/FAM-crosstide assay, IMAP fluorescence polarization); assay type: biochemical
Sequence of PDK1 (O15530 51-359): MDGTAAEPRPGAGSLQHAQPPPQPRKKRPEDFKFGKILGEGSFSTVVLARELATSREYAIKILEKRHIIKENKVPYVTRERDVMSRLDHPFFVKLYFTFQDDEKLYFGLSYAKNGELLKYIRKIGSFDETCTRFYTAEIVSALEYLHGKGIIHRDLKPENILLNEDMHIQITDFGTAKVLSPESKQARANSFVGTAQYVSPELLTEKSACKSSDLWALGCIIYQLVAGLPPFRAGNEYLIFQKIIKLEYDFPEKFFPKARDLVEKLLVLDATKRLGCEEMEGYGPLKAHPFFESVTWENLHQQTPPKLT
Summary of the method: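 GST-tagged human PDK1 (aa 51-359, 0.75 nM) from insect cells activated unphosphorylated GST-AKT2 (aa 140-467–PIFtide fusion, 10 nM), which phosphorylated 100 nM FAM-crosstide; 40 μM ATP, pH 7.2 Tris/MgCl2, 30 min at 25° C. IMAP fluorescence polarization read-out; ΔmP versus compound concentration fitted with a 4-parameter curve.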

[3] = Homo sapiens, inhibition of P308 Akt in PC-3 cells using MSD
[4] = Homo sapiens, inhibition of P308 Akt in PC-3 cells, MSD
[5] = inhibition of phospo-PDK1 in vitro

C[C@H](NC(=O)c1cc(C#N)cnc1NCc1ccc(-c2cnc3[nH]ncc3c2)nc1)c1ccc(F)cc1 [Example 65, 5-Cyano-N-[(S)-1-(4-fluoro-phenyl)-ethyl]-2-{[6-(1H-pyrazolo[3,4-b]pyridin-5-yl)-pyridin-3-ylmethyl]-amino}-nicotinamide]
EC50 [1, 3]: < 1 µM | IC50 ([2]; inhibition of PDK1 in vitro): < 0.1 µM

O=C(c1cccnc1NCc1cccc(-c2c[nH]c3ncccc23)c1)N1CCCCC1 [Example 1.13, Piperidin-1-yl(2-{[3-(1H-pyrrolo [2,3-b]pyridin-3-yl)benzyl]amino}pyridin-3-yl)methanone]
EC50 [1, 4]: > 10 µM | IC50 [2, 5]: > 5 µM

O=C(NCc1ccc(F)c(F)c1)c1cccnc1NCc1cccc(-c2c[nH]c3ncccc23)c1 [Example 1.5, 2-(3-(1H-pyrrolo[2,3-b]pyridin-3-yl)benzylamino)-N-(3,4-difluorobenzyl)nicotinamide]
EC50 [1, 4]: 1 to 10 µM | IC50 [2, 5]: < 0.1 µM

Nc1ncnc2ccc(-c3ccc(CNc4ncccc4C(=O)Nc4ccc(F)c(Cl)c4)s3)cc12 [Example 3.49, 2-({[5-(4-aminoquinazolin-6-yl)thiophen-2-yl]methyl}amino)-N-(3-chloro-4-fluorophenyl) pyridine-3-carboxamide (TFA salt)]
EC50 [1, 4]: 1 to 10 µM | IC50 [2, 5]: 0.1 to 1 µM

C[C@H](NC(=O)c1nc(C#N)cnc1NCc1ccc(-c2cnc3[nH]nc(N)c3c2)cc1)c1ccc(F)cc1 [Example 32, (S)-3-(4-(3-amino-1H-pyrazolo[3,4-b]pyridin-5-yl)benzylamino)-6-cyano-N-(1-(4-fluorophenyl)ethyl) pyrazine-2-carboxamide]
EC50 [1, 4]: < 1 µM | IC50 [2, 5]: < 0.1 µM

Cn1cc(-c2ccc(CNc3ncc(C(F)(F)F)cc3C(=O)NCc3ccc(F)c(F)c3)cc2)c2c(N)ncnc21 [Example 331, 2-(4-(4-amino-7-methyl-7H-pyrrolo[2,3-d]pyrimidin-5-yl)-benzylamino)-N-(3,4-difluorobenzyl)-5-(trifluoromethyl)nicotinamide]
EC50 [1, 3]: < 1 µM | IC50 ([2]; inhibition of PDK1 in vitro): < 0.1 µM

O=C(NCc1ccc(F)c(F)c1)c1cccnc1N[C@@H](COc1ccc2[nH]c(=O)[nH]c2c1)c1ccccc1 [Example 16.1, (R)-N-(3,4-difluorobenzyl)-2-(2-(2-oxo-2,3-dihydro-1H-benzo[d]imidazol-5-yloxy)-1-phenylethylamino)nicotinamide]
EC50 [1, 4]: < 1 µM | IC50 [2, 5]: < 0.1 µM

C[C@H](NC(=O)c1cc(C#N)cnc1NCc1ccc(-c2c[nH]c3ncnc(N)c23)cc1F)c1ccc(F)cc1 [Example 99, (S)-2-(4-(4-amino-7H-pyrrolo[2,3-d]pyrimidin-5-yl)-2-fluorobenzylamino)-5-cyano-N-(1-(4-fluorophenyl)ethyl) nicotinamide]
EC50 ([1]; inhibition of P308 Akt in PC-3 cells using MSD): < 1 µM | IC50 ([2]; inhibition of PDK1 in vitro): < 0.1 µM

O=C1Nc2cc(/C=C/CNc3ncccc3C(=O)NCc3cncc(F)c3)ccc2/C1=C/c1cnc[nH]1 [Example 15.15, 2-((E)-3-((Z)-3-((1H-imidazol-5-yl)methylene)-2-oxoindolin-6-yl)allylamino)-N-((5-fluoropyridin-3-yl)methyl) nicotinamide]
EC50 [1, 4]: < 1 µM | IC50 [2, 5]: < 0.1 µM

CC(C)NS(=O)(=O)c1cnc(NCc2ccc(-c3ccc4ncnc(N)c4c3)s2)c(C(=O)NCc2ccc(F)c(F)c2)c1 [Example 8.7.9, 2-({[5-(4-aminoquinazolin-6-yl)thiophen-2-yl]methyl}amino)-N-(3,4-difluorobenzyl)-5-(propan-2-ylsulfamoyl) pyridine-3-carboxamide]
EC50 ([1]; Homo sapiens, PC-3, 2 h, inhibition of P308 Akt in PC-3 cells, MSD): 1 to 10 µM | IC50 [2, 5]: 0.1 to 1 µM

Nc1ncnc2ccc(-c3ccc(CNc4ncccc4C(=O)Nc4ccc(Cl)cc4)s3)cc12 [Example 3.48, 2-({[5-(4-aminoquinazolin-6-yl)thiophen-2-yl]methyl}amino)-N-(4-chlorophenyl)pyridine-3-carboxamide (TFA salt)]
EC50 [1, 4]: > 10 µM | IC50 [2, 5]: 0.1 to 1 µM

C[C@H](NC(=O)c1nc(C#N)cnc1NCc1ccc(-c2cn(CCCN)c3ncnc(N)c23)cc1)c1ccc(F)c(F)c1 [Example 318, (S)-3-(4-(4-amino-7-(3-aminopropyl)-7H-pyrrolo[2,3-d]pyrimidin-5-yl)benzylamino)-6-cyano-N-(1-(3,4-difluoro-phenyl)ethyl)pyrazine-2-carboxamide]
EC50 [1, 3]: < 1 µM | IC50 ([2]; inhibition of PDK1 in vitro): < 0.1 µM

C[C@H](NC(=O)c1cc(C#N)cnc1NCc1ccc(-c2cnc3[nH]c(=O)[nH]c3c2)cc1)c1ccc(F)cc1 [Example 116, (S)-5-cyano-N-(1-(4-fluorophenyl)ethyl)-2-(4-(2-oxo-2,3-dihydro-1H-imidazo[4,5-b]pyridin-6-yl)benzyl-amino)nicotinamide]
EC50 [1, 3]: < 1 µM | IC50 ([2]; inhibition of PDK1 in vitro): < 0.1 µM

O=C(NCc1ccc(F)c(F)c1)c1cccnc1NCc1cccc(-c2ccc3ncnc(NC4CC4)c3c2)c1 [Example 6.3, 2-(3-(4-(cyclopropylamino)quinazolin-6-yl)benzylamino)-N-(3,4-difluorobenzyl)-nicotinamide]
EC50 [1, 4]: > 10 µM | IC50 [2, 5]: < 0.1 µM

CNC(=O)c1cc(S(=O)(=O)NCCN)cnc1NCc1ccc(-c2ccc3ncnc(N)c3c2)s1 [Example 344]
EC50 [1, 3]: > 10 µM | IC50 ([2]; inhibition of PDK1 in vitro): > 5 µM

C[C@H](NC(=O)c1cc(C(F)(F)F)cnc1NCc1ccc(-c2cnc(N)cn2)cc1)c1ccc(F)cc1 [Example 379, (S)-2-(4-(5-aminopyrazin-2-yl)benzylamino)-N-(1-(4-fluorophenyl)ethyl)-5-(trifluoromethyl)nicotinamide]
EC50 [1, 3]: < 1 µM | IC50 ([2]; inhibition of PDK1 in vitro): < 0.1 µM

C[C@H](NC(=O)c1cc(C#N)cnc1NCc1ccc(-c2nn(C)c3ncnc(N)c23)cc1)c1ccc(F)cc1 [Example 98, (S)-2-(4-(4-amino-1-methyl-1H-pyrazolo[3,4-d]pyrimidin-3-yl)benzylamino)-5-cyano-N-(1-(4-fluorophenyl)ethyl)nicotinamide]
EC50 [1, 3]: 1 to 10 µM | IC50 ([2]; inhibition of PDK1 in vitro): < 0.1 µM

Nc1ncnc2ccc(-c3ccc(CNc4ncccc4C(=O)NCc4cc(F)ccc4C(F)(F)F)s3)cc12 [Example 3.12, 2-({[5-(4-aminoquinazolin-6-yl)thiophen-2-yl]methyl}amino)-N-[5-fluoro-2-(trifluoromethyl)benzyl]pyridine-3-carboxamide (TFA salt)]
EC50 [1, 4]: > 10 µM | IC50 [2, 5]: > 5 µM

C[C@H](NC(=O)c1cc(C#N)cnc1NCc1ccc(-c2ccnc(N)n2)cc1)c1ccc(F)cc1 [Example 117, (S)-2-(4-(2-amino-pyrimidin-4-yl)benzylamino)-5-cyano-N-(1-(4-fluorophenyl)ethyl) nicotinamide]
EC50 [1, 3]: 1 to 10 µM | IC50 ([2]; inhibition of PDK1 in vitro): > 5 µM

Nc1n[nH]c2ncc(-c3ccc(CNc4ncc(C(F)(F)F)cc4C(=O)Nc4cncc(F)c4)cc3)cc12 [Example 306, 2-(4-(3-amino-1H-pyrazolo [3,4-b]pyridin-5-yl)benzylamino)-N-(5-fluoropyridin-3-yl)-5-(trifluoromethyl)nicotinamide]
EC50 [1, 3]: < 1 µM | IC50 ([2]; inhibition of PDK1 in vitro): < 0.1 µM

Nc1ncc(-c2ccc(CNc3ncc(C(F)(F)F)cc3C(=O)Nc3ccc(F)cc3)cc2)nc1N1CCC[C@@H](N)C1 [Example 189, 2-{4-[5-Amino-6-((R)-3-amino-piperidin-1-yl)-pyrazin-2-yl]-benzylamino}-N-(4-fluoro-phenyl)-5-trifluoromethyl-nicotinamide]
EC50 [1, 3]: 1 to 10 µM | IC50 ([2]; inhibition of PDK1 in vitro): < 0.1 µM

CNC(=O)c1cc(S(=O)(=O)N2CCCCC2)cnc1NCc1ccc(-c2ccc3ncnc(N)c3c2)s1 [Example 8.6.19]
EC50 [1, 4]: > 10 µM | IC50 [2, 5]: > 5 µM

CNc1ncc2cc(C#CCNc3ncc(C(F)(F)F)cc3C(=O)NCc3ccc(F)c(F)c3)ccc2n1 [Example 256, N-(3,4-difluorobenzyl)-2-(2-(2-(methylamino)quinazolin-6-yl)prop-2-ynylamino)-5-(trifluoromethyl)nicotinamide]
EC50 [1, 3]: 1 to 10 µM | IC50 ([2]; inhibition of PDK1 in vitro): < 0.1 µM

C[C@H](NC(=O)c1cc(F)cnc1NCc1ccc(-c2cc3c(N)ncnc3cn2)s1)c1ccc(F)cc1
EC50 [1, 4]: 1 to 10 µM | IC50 [2, 5]: 0.1 to 1 µM

Nc1ncnc2ccc(-c3ccc(CNc4ncc(OCc5ccccc5)cc4C(=O)NCc4ccc(F)c(F)c4)s3)cc12 [Ex. 8.1.1, 2-({[5-(4-aminoquinazolin-6-yl)thiophen-2-yl]methyl}amino)-5-(benzyloxy)-N-(3,4-difluorobenzyl)pyridine-3-carboxamide]
EC50 [1, 4]: 1 to 10 µM | IC50 [2, 5]: < 0.1 µM

C[C@H](NC(=O)c1nccnc1NCc1ccc(-c2cc3c(N)ncnc3cn2)s1)c1ccc(F)c(F)c1 [Example 3.78, 3-({[5-(4-aminopyrido[3,4-d]pyrimidin-6-yl)thiophen-2-yl]methyl}amino)-N-[(1S)-1-(3,4-difluorophenyl)ethyl] pyrazine-2-carboxamide (TFA salt)]
EC50 [1, 4]: < 1 µM | IC50 [2, 5]: 0.1 to 1 µM

C[C@H](NC(=O)c1cccnc1N[C@@H](COc1ccc2[nH]c(=O)[nH]c2c1)c1ccccc1)c1ccc(F)c(F)c1 [Example 16.3]
EC50 [1, 4]: 1 to 10 µM | IC50 [2, 5]: 0.1 to 1 µM

C[C@H](NC(=O)c1cccnc1NCc1cccc(-c2c[nH]c3ncnc(N)c23)c1)c1ccc(F)cc1 [Example 2.29, (S)-2-(3-(4-amino-7H-pyrrolo[2,3-d]pyrimidin-5-yl)benzylamino)-N-(1-(4-fluorophenyl)ethyl) nicotinamide]
EC50 ([1]; inhibition of P308 Akt in PC-3 cells, MSD): 1 to 10 µM | IC50 [2, 5]: < 0.1 µM
